For this series, the system named is HeLa cells. Put plainly: Alkaline Comet assay, accumulation of DNA damage. It counts as cell-based. The conditions noted are these: for Amount of DNA damage (% DNA in tail) in combination with Tpc compared to only Tpc: 10 μM Tpc + compound; for DNA in tail: 1 h; for Effect of the compound alone on the integrity of DNA: compound alone in concentrations up to 1 mM, compared to untreated or 1% DMSO. An excerpt: We studied the effect of Tdp1 inhibitors 5f and 6d on the accumulation of DNA damage by single-cell gel electrophoresis (Comet assay). […] This method has proven to be a simple, fast, and a quite sensitive way to detect DNA damage at the level of a single cell, allowing one to analyze almost any eukaryotic cell culture. Several analysis options allow one to visualize various types of DNA damage: single- and double-stranded breaks and alkaline-labile sites. This allows this method to be widely used in fundamental studies of DNA damage and repair and in testing the genotoxicity of new chemical and pharmaceutical drugs in vitro and in vivo [51, 52]. To study potential drugs, the alkaline version of the method (pH > 13) proposed by Singh and co-authors is widely used. This method allows the detection of all types of DNA damage with high sensitivity. In cells with a large amount of DNA damage, the structural organization and integrity of DNA are disrupted, which leads to its relaxation and/or fragmentation. As a result, cellular DNA in an electric field gives the observed objects the appearance of a “comet”.
Before studying the effect of Tdp1 inhibitors on the accumulation of DNA damage, it was necessary to find out how long the generation of DNA damage by Tpc and their repair take place in HeLa cells. To do this, cell culture was treated with Tpc at 1, 10, and 100 μM concentrations for 30 min, 1, 2, and 3 h and the level of damage to individual cells was monitored by Comet assay. It was shown that Tpc caused the greatest amount of damage after 30 minutes’ treatment. After this time, the repair systems began to correct these lesions and as a result, after 3 h most of them have been eliminated (Figure S9). […] The level of DNA damage at this point was enough to be detected, the data were reproducible, and can be evaluated by the Comet assay. The effect could be enhanced by the tested compounds without leading to cell death. It was important for us to see this enhancement in the presence of our compounds.
HeLa cell culture was grown in a 24-well plate to a concentration of 0.05 million/mL, then treated with the tested compounds and incubated for 1 h. To obtain a cell suspension, the cells were treated with trypsin (30 µL in each well for 5 min at 37 °C), and then 200 µL of PBS + 10% FBS were added to each well.
The resulting cell suspension (50 µL) was mixed with 250 µL of a 1% solution of molten low melting agarose (CertifiedTM LMAgarose; BIO-RAD), 250 µL of this mixture was transferred to the slides pre-coated with a 1% normal melting agarose (Agarose; Helicon), and left for several minutes at 4 °C to solidify. The resulting slides were incubated in a lysing solution (2.5 M NaCl, 100 mM EDTA, 10 mM Tris base, 1% Triton, 5% DMSO, pH 10.0) for an hour at 4 °C. Then the slides were immersed in an electrophoretic buffer (300 mM NaOH, 1 mM EDTA, pH > 13) for 45 min at 4 °C. Electrophoresis was performed at 20 V, 450 mA for 10 min while cooling on ice. After that, the slides were immersed 2 times for 5 min in 0.4 M Tris-HCl pH 7.5 solution for neutralization, washed twice with cold water, and stained with SYBR Green I (excitation maximum at 497 nm, emission maximum at 520 nm; Thermo Fisher Scientific KK).
The images were obtained using a CELENA © S digital microscope (Logos Biosystems, Inc., Annandale, VA, USA) and analyzed with Comet analysis software (Trevigen, Inc., Gaithersburg, MD, USA. In all experiments, 2 slides were evaluated for each sample by counting at least 200 cells on the glass. As a parameter for measuring the level of DNA damage, the median value of the percentage of DNA in the tail was chosen (% Tail DNA = 100 × the intensity of DNA fluorescence in the tail of the comet/the intensity of fluorescence of the total DNA of the comet).

Where [1] appears, read: compound 10 μM + Topotecan 10 μM.
The mark [2] stands for this setting: compound 50 μM + Topotecan 10 μM.
Where [3] appears, read: compound 200 μM + Topotecan 10 μM.

The source of these data is PMC9822400, “The Lipophilic Purine Nucleoside—Tdp1 Inhibitor—Enhances DNA Damage Induced by Topotecan In Vitro and Potentiates the Antitumor Effect of Topotecan In Vivo” (Molecules, 2022).

“Also recorded” adds a separate entry of the source.

For `O[C@@H]1[C@H](O)[C@@H](COC(c2ccccc2)(c2ccccc2)c2ccccc2)O[C@H]1n1cnc2c(NC(c3ccccc3)(c3ccccc3)c3ccccc3)ncnc21` [compound 5f], the “Amount of DNA damage (% DNA in tail) in combination with Tpc compared to only Tpc” value is given as “did not significantly differ” and the “Effect of the compound alone on the integrity of DNA” value is “did not affect the integrity of DNA”. Moreover, the DNA in tail under setting [1] was 37±3%. Further, the DNA in tail under setting [2] is recorded as 40±3%. The DNA in tail under setting [3] is reported as 42±4%.

For the compound `O=C(OC[C@H]1O[C@@H](n2cnc3c(Cl)nc(Cl)nc32)[C@H](OC(=O)c2ccccc2)[C@@H]1OC(=O)c1ccccc1)c1ccccc1` [compound 6d, 2,6-dichloro-9-(2,3,5-tri-O-benzoyl-β-D-ribofuranosyl)purine], the “Amount of DNA damage (% DNA in tail) in combination with Tpc compared to only Tpc” value is recorded as “increased the amount of DNA damage” and the “Effect of the compound alone on the integrity of DNA” value is “did not affect the integrity of DNA; also recorded: does not cause DNA damage by itself”. The “Reduction of the topotecan dose required to produce a serious level of DNA damage” value (Tpc 1 μM + 6d 5 μM similar to only Tpc 10 μM) came to 10 times. Also, the DNA in tail under setting [1] came out at 50±2%. Moreover, the DNA in tail under setting [2] came to 65±6%. Under setting [3], the DNA in tail is listed as 71±4%.
